Reference: patent publication US20240261249A1, “NOVEL SQUARAMIDE DERIVATIVE AND USE THEREOF” (PUSAN NATIONAL UNIVERSITY INDUSTRY-UNIVERSITY COOPERATION …, priority 2021, published 2024)

Key:
Phospho-eIF2α (Ser51) = Phospho-eIF2α (Ser51) Sandwich ELISA in K562 cells; format: cell-based; details: Homo sapiens, K562, 6 h, serum-free RPMI, 10 μM compound, control = 1, read-out: eIF2α phosphorylation, absorbance standardized to control (DMSO-treated) set to 1, at 10 μM
Description: Pathscan Phospho-eIF2α (Ser51) Sandwich ELISA Kit #7286 from Cell signaling was used. The K562 cell line was cultured in serum-free RPMI medium at 37° C. in the presence of 5% CO2. Cells were treated with test compounds at a concentration of 10 μM. Six hours after compound treatment, the cells were lysed with a lysis buffer included in the kit to obtain 50 μg of protein by quantification. Afterwards, ELISA assay was performed according to the manufacturer's protocol to obtain absorbance. The absorbance for each obtained compound was standardized to a value of which the control (DMSO-treated) is set to 1.

K562 cell line = assay: CCK-8 anti-proliferative assay, K562; format: cell-based; details: Homo sapiens, 72 h; K562, culture for 3 days, CCK-8, Table 2; read-out: IC50
Description: CCK-8 assay (cell counting kit-8 assay, Dojindo, Kumamoto, Japan) was performed. The K562 cell line was cultured in RPMI medium supplemented with 10% FBS and 1% ABAM at 37° C. in the presence of 5% CO2. Cells were treated with test compounds at concentrations of 0 μM, 1.25 μM, 2.5 μM, 5 μM, 10 μM, and 20 μM, respectively. After culture for 3 days, 10 μL of CCK-8 solution was treated and cultured for 4 hours. Subsequently, the absorbance was measured at 450 nm to obtain the IC50 value of each compound.
The experimental values for the K562 cell line are identical to biological Example 2.

IC50 (K562 cell line)	Structure (SMILES)	activity at 10 µM (Phospho-eIF2α (Ser51))
> 20 µM	N#Cc1ccc(O[C@H]2CC[C@H](Nc3c(Nc4ccccc4C(F)(F)F)c(=O)c3=O)CC2)cc1 [Compound 71, 4-(((1,4-trans)-4-((3,4-Dioxo-2-((2-(trifluoromethyl)phenyl)amino)cyclobut-1-en-1-yl)amino)cyclohexyl)oxy)benzonitrile]	180%
> 20 µM	N#Cc1cc(Nc2c(N[C@H]3CC[C@H](Oc4ccc([N+](=O)[O-])cc4)CC3)c(=O)c2=O)cc(C(F)(F)F)c1 [Compound 85, 3-((2-(((1,4-trans)-4-(4-Nitrophenoxy)cyclohexyl)amino)-3,4-dioxocyclobut-1-en-1-yl)amino)-5-(trifluoromethyl)benzonitrile]	116%
	NS(=O)(=O)c1ccc(O[C@H]2CC[C@H](Nc3c(Nc4cccc(C(F)(F)F)c4)c(=O)c3=O)CC2)cc1 [Compound 27, 4-(((1,4-trans)-4-((3,4-Dioxo-2-((3-(trifluoromethyl)phenyl)amino)cyclobut-1-en-1-yl)amino)cyclohexyl)oxy)benzenesulfonamide]	108%
	O=c1c(Nc2ccc(C(F)(F)F)cc2)c(N[C@H]2CC[C@H](Oc3ccc(C(F)(F)F)cc3)CC2)c1=O [Compound 46, 3-(((1,4-trans)-4-(4-(Trifluoromethyl)phenoxy)cyclohexyl)amino)-4-((4-(trifluoromethyl)phenyl)amino)cyclobut-3-ene-1,2-dione]	71%
	COc1ccccc1Nc1c(N[C@H]2CC[C@H](Oc3ccc(S(N)(=O)=O)cc3)CC2)c(=O)c1=O [Compound 82, 4-(((1,4-trans)-4-((2-((2-Methoxyphenyl)amino)-3,4-dioxocyclobut-1-en-1-yl)amino)cyclohexyl)oxy)benzenesulfonamide]	136%
	O=c1c(Nc2ccc(Cl)cc2)c(N[C@H]2CC[C@H](Oc3ccc([N+](=O)[O-])cc3)CC2)c1=O [Compound 44, 3-((4-Chlorophenyl)amino)-4-(((1,4-trans)-4-(4-nitrophenoxy)cyclohexyl)amino)cyclobut-3-ene-1,2-dione]	147%
	N#Cc1ccc(O[C@H]2CC[C@H](Nc3c(Nc4cccc(F)c4)c(=O)c3=O)CC2)cc1 [Compound 14, 4-(((1,4-trans)-4-((2-((3-Fluorophenyl)amino)-3,4-dioxocyclobut-1-en-1-yl)amino)cyclohexyl)oxy)benzonitrile]	90%
	O=c1c(Nc2ccccc2F)c(N[C@H]2CC[C@H](Oc3ccc([N+](=O)[O-])cc3)CC2)c1=O [Compound 64, 3-((2-Fluorophenyl)amino)-4-(((1,4-trans)-4-(4-nitrophenoxy)cyclohexyl)amino)cyclobut-3-ene-1,2-dione]	133%
	O=c1c(Nc2cccc(F)c2)c(N[C@H]2CC[C@H](Oc3ccc([N+](=O)[O-])cc3)CC2)c1=O [Compound 15, 3-((3-Fluorophenyl)amino)-4-(((1,4-trans)-4-(4-nitrophenoxy)cyclohexyl)amino)cyclobut-3-ene-1,2-dione]	81%
	O=c1c(Nc2ccccc2Cl)c(N[C@H]2CC[C@H](Oc3ccc([N+](=O)[O-])cc3)CC2)c1=O [Compound 68, 3-((2-Chlorophenyl)amino)-4-(((1,4-trans)-4-(4-nitrophenoxy)cyclohexyl)amino)cyclobut-3-ene-1,2-dione]	209%
	O=c1c(Nc2ccc(F)cc2)c(N[C@H]2CC[C@H](Oc3ccc([N+](=O)[O-])cc3)CC2)c1=O [Compound 40, 3-((4-Fluorophenyl)amino)-4-(((1,4-trans)-4-(4-nitrophenoxy)cyclohexyl)amino)cyclobut-3-ene-1,2-dione]	82%
	O=c1c(Nc2cccc(F)c2)c(N[C@H]2CC[C@H](Oc3ccc(C(F)(F)F)cc3)CC2)c1=O [Compound 13, 3-((3-Fluorophenyl)amino)-4-(((1,4-trans)-4-(4-(trifluoromethyl)phenoxy)cyclohexyl)amino)cyclobut-3-ene]	84%
	COc1ccccc1Nc1c(N[C@H]2CC[C@H](Oc3ccc(S(C)(=O)=O)cc3)CC2)c(=O)c1=O [Compound 81, 3-((2-Methoxyphenyl)amino)-4-(((1,4-trans)-4-(4-(methylsulfonyl)phenoxy)cyclohexyl)amino)cyclobut-3-ene-1,2-dione]	152%
	CS(=O)(=O)c1ccc(O[C@H]2CC[C@H](Nc3c(Nc4ccc(Cl)cc4)c(=O)c3=O)CC2)cc1 [Compound 45, 3-((4-Chlorophenyl)amino)-4-(((1,4-trans)-4-(4-(methylsulfonyl)phenoxy)cyclohexyl)amino)cyclobut-3-ene-1,2-dione]	79%
	COc1ccccc1Nc1c(N[C@H]2CC[C@H](Oc3ccc(C(F)(F)F)cc3)CC2)c(=O)c1=O [Compound 78, 3-((2-Methoxyphenyl)amino)-4-(((1,4-trans)-4-(4-(trifluoromethyl)phenoxy)cyclohexyl)amino)cyclobut-3-ene-1,2-dione]	213%
	COc1cccc(Nc2c(N[C@H]3CC[C@H](Oc4ccc(C#N)cc4)CC3)c(=O)c2=O)c1 [Compound 34, 4-(((1,4-trans)-4-((2-((3-Methoxyphenyl)amino)-3,4-dioxocyclobut-1-en-1-yl)amino)cyclohexyl)oxy)benzonitrile]	83%
	COc1ccccc1Nc1c(N[C@H]2CC[C@H](Oc3ccc(C#N)cc3)CC2)c(=O)c1=O [Compound 79, 4-(((1,4-trans)-4-((2-((2-Methoxyphenyl)amino)-3,4-dioxocyclobut-1-en-1-yl)amino)cyclohexyl)oxy)benzonitrile]	238%
	COc1cccc(Nc2c(N[C@H]3CC[C@H](Oc4ccc(S(C)(=O)=O)cc4)CC3)c(=O)c2=O)c1 [Compound 36, 3-((3-Methoxyphenyl)amino)-4-(((1,4-trans)-4-(4-(methylsulfonyl)phenoxy)cyclohexyl)amino)cyclobut-3-ene-1,2-dione]	60%
	O=c1c(Nc2cccc(Cl)c2)c(N[C@H]2CC[C@H](Oc3ccc(C(F)(F)F)cc3)CC2)c1=O [Compound 18, 3-((3-Chlorophenyl)amino)-4-(((1,4-trans)-4-(4-(trifluoromethyl)phenoxy)cyclohexyl)amino)cyclobut-3-ene-1,2-dione]	71%
	COc1cccc(Nc2c(N[C@H]3CC[C@H](Oc4ccc(S(N)(=O)=O)cc4)CC3)c(=O)c2=O)c1 [Compound 37, 4-(((1,4-trans)-4-((2-((3-Methoxyphenyl)amino)-3,4-dioxocyclobut-1-en-1-yl)amino)cyclohexyl)oxy)benzenesulfonamide]	67%
	COc1ccc(Nc2c(N[C@H]3CC[C@H](Oc4ccc(S(C)(=O)=O)cc4)CC3)c(=O)c2=O)cc1 [Compound 57, 3-((4-Methoxyphenyl)amino)-4-(((1,4-trans)-4-(4-(methylsulfonyl)phenoxy)cyclohexyl)amino)cyclobut-3-ene-1,2-dione]	211%
	COc1ccc(Nc2c(N[C@H]3CC[C@H](Oc4ccc(C#N)cc4)CC3)c(=O)c2=O)cc1 [Compound 55, 4-(((1,4-trans)-4-((2-((4-Methoxyphenyl)amino)-3,4-dioxocyclobut-1-en-1-yl)amino)cyclohexyl)oxy)benzonitrile]	84%
	O=c1c(Nc2ccc(C(F)(F)F)cc2)c(N[C@H]2CC[C@H](Oc3ccc([N+](=O)[O-])cc3)CC2)c1=O [Compound 48, 3-(((1,4-trans)-4-(4-Nitrophenoxy)cyclohexyl)amino)-4-((4-(trifluoromethyl)phenyl)amino)cyclobut-3-ene-1,2-dione]	91%
	CS(=O)(=O)c1ccc(O[C@H]2CC[C@H](Nc3c(Nc4cccc(F)c4)c(=O)c3=O)CC2)cc1 [Compound 16, 3-((3-Fluorophenyl)amino)-4-(((1,4-trans)-4-(4-(methylsulfonyl)phenoxy)cyclohexyl)amino)cyclobut-3-ene-1,2-dione]	84%
	N#Cc1ccc(O[C@H]2CC[C@H](Nc3c(Nc4ccc(F)cc4)c(=O)c3=O)CC2)cc1 [Compound 39, 4-(((1,4-trans)-4-((2-((4-Fluorophenyl)amino)-3,4-dioxocyclobut-1-en-1-yl)amino)cyclohexyl)oxy)benzonitrile]	83%
	N#Cc1ccc(O[C@H]2CC[C@H](Nc3c(Nc4ccccc4Cl)c(=O)c3=O)CC2)cc1 [Compound 67, 4-(((1,4-trans)-4-((2-((2-Chlorophenyl)amino)-3,4-dioxocyclobut-1-en-1-yl)amino)cyclohexyl)oxy)benzonitrile]	199%
	N#Cc1ccc(O[C@H]2CC[C@H](Nc3c(Nc4ccccc4)c(=O)c3=O)CC2)cc1 [Compound 9, 4-(((1,4-trans)-4-((3,4-Dioxo-2-(phenylamino)cyclobut-1-en-1-yl)amino)cyclohexyl)oxy)benzonitrile]	88%
	CC(C)(C)c1ccc(Nc2c(N[C@H]3CC[C@H](Oc4ccc(C#N)cc4)CC3)c(=O)c2=O)cc1 [Compound 51, 4-(((1,4-trans)-4-((2-((4-(tert-Butyl)phenyl)amino)-3,4-dioxocyclobut-1-en-1-yl)amino)cyclohexyl)oxy)benzonitrile]	182%
